According to ChEMBL document CHEMBL3745676, “Alkylamino derivatives of N-benzylpyrazine-2-carboxamide: synthesis and antimycobacterial evaluation” (Medchemcomm, 2015):
pEC50, pIC50: −log10 of the molar value. In brackets after ≈: the same amount, converted by molar mass. Activity calls are given as the source filed them. No cut-off for these calls is given here.

Experiments:
[1] = Lipophilicity, logK of the compound by RP-HPLC analysis; format: physicochemical
Mycobacterium kansasii = assay: Antimycobacterial activity against Mycobacterium kansasii CNCTC My 235/80 incubated for 5 to 7 days by microplate alamar blue assay; format: functional
Mycobacterium avium [2] = assay: Antimycobacterial activity against Mycobacterium avium CNCTC My 80/72 after 5 days by microplate alamar blue assay; format: functional; details: CNCTC My 80/72, 120 h
Mycobacterium avium [3] = assay: Antimycobacterial activity against Mycobacterium avium CNCTC My 152/73 after 5 days by microplate alamar blue assay; format: functional; details: CNCTC My 152/73, 120 h
[4] = tested on: Mycobacterium tuberculosis; assay: Antimycobacterial activity against Mycobacterium tuberculosis H37Rv; format: functional
[5] = tested on: Mycobacterium tuberculosis; assay: Antimycobacterial activity against Mycobacterium tuberculosis H37Rv CNCTC My 331/88 incubated for 10 to 14 days by microplate alamar blue assay; format: functional
[6] = Cytotoxicity against CRFK cells assessed as cell viability after 4 to 6 days by formazan-based MTS assay; parameters: species or system Felis catus; details: cat
[7] = Cytotoxicity against HEL cells assessed as cell viability after 4 to 6 days by microscopic analysis; format: cell-based; details: human
[8] = Cytotoxicity against human HeLa cells assessed as cell viability after 4 to 6 days by microscopic analysis; format: cell-based
[9] = Cytotoxicity against African green monkey Vero cells assessed as cell viability after 4 to 6 days by microscopic analysis; format: cell-based; details: chlorocebus sabaeus
[10] = Cytotoxicity against MDCK cells assessed as cell viability after 4 to 6 days by formazan-based MTS assay; parameters: species or system Canis lupus familiaris; details: dog
[11] = Cytotoxicity against MDCK cells assessed as cell viability after 4 to 6 days by microscopic analysis; format: cell-based, Canis lupus familiaris; details: dog
Influenza A virus [12] = assay: Antiviral activity against Influenza A virus (A/Puerto Rico/8/(H1N1)) assessed as inhibition of virus-induced cytopathic effect after 3 to 6 days by formazan-based MTS assay; format: functional, organism-based
Escherichia coli = assay: Antibacterial activity against Escherichia coli CCM 4517 after 24 to 48 hrs by broth microdilution method; format: functional
Pseudomonas aeruginosa = assay: Antibacterial activity against Pseudomonas aeruginosa CCM 1961 after 24 to 48 hrs by broth microdilution method; format: functional
Klebsiella pneumoniae [13] = assay: Antibacterial activity against Klebsiella pneumoniae D 11750/08 after 24 to 48 hrs by broth microdilution method; format: functional
Klebsiella pneumoniae [14] = assay: Antibacterial activity against ESBL positive Klebsiella pneumoniae J 14368/08 after 24 to 48 hrs by broth microdilution method; format: functional
Candida albicans = assay: Antifungal activity against Candida albicans ATCC 44859 after 24 to 48 hrs by broth microdilution method; format: functional
Candida tropicalis = assay: Antifungal activity against Candida tropicalis 156 after 24 to 48 hrs by broth microdilution method; format: functional
Pichia kudriavzevii = assay: Antifungal activity against Candida krusei E28 after 24 to 48 hrs by broth microdilution method; format: functional
Nakaseomyces glabratus = assay: Antifungal activity against Candida glabrata 20/I after 24 to 48 hrs by broth microdilution method; format: functional
Trichosporon asahii = assay: Antifungal activity against Trichosporon asahii 1188 after 24 to 48 hrs by broth microdilution method; format: functional
Aspergillus fumigatus = assay: Antifungal activity against Aspergillus fumigatus 231 after 24 to 48 hrs by broth microdilution method; format: functional
Lichtheimia corymbifera = assay: Antifungal activity against Lichtheimia corymbifera 272 after 24 to 48 hrs by broth microdilution method; format: functional
[15] = tested on: Trichophyton mentagrophytes; assay: Antifungal activity against Trichophyton mentagrophytes 445 after 72 to 120 hrs by broth microdilution method; format: functional
Influenza A virus [16] = assay: Antiviral activity against Influenza A virus (A/Puerto Rico/8/(H1N1)) assessed as inhibition of virus-induced cytopathic effect after 3 to 6 days by microscopic analysis; format: functional, organism-based
[17] = tested on: Respiratory syncytial virus; assay: Antiviral activity against Respiratory syncytial virus infecetd in human HeLa cells assessed as inhibition of virus replication after 3 to 6 days; format: functional, organism-based
[18] = tested on: Mycobacterium tuberculosis; assay: Inhibition of mycolic acid synthesis in [1,2-14C]-acetate-labelled Mycobacterium tuberculosis H37Ra at 5 ug/ml preincubated for 20 hrs followed by radiolabelling measured after 24 hrs by autoradiography; format: functional, organism-based
[19] = tested on: Mycobacterium tuberculosis; assay: Potency index, ratio of pyrazinamide MIC to compound MIC for Mycobacterium tuberculosis H37Rv CNCTC My 331/88; format: functional
[20] = tested on: Mycobacterium tuberculosis; assay: Effect on short chain fatty acids production in [1,2-14C]-acetate-labelled Mycobacterium tuberculosis H37Ra at 5 ug/ml preincubated for 20 hrs followed by radiolabelling measured after 24 hrs by autoradiography; format: functional, organism-based
[21] = Inhibition of Mycobacterium tuberculosis InhA
Staphylococcus aureus [22] = assay: Antibacterial activity against methicillin-resistant Staphylococcus aureus H 5996/08 after 24 to 48 hrs by broth microdilution method; format: functional, organism-based
Staphylococcus aureus [23] = assay: Antibacterial activity against Staphylococcus aureus after 24 to 48 hrs by broth microdilution method; format: functional

Row | SMILES | log K [1] | MIC (Mycobacterium kansasii) | MIC (Mycobacterium avium [2]) | MIC (Mycobacterium avium [3]) | MIC [5] | CC50 [6] | MCC [7] | MCC [8] | MCC [9] | CC50 [10] | MCC [11] | pEC50 (Influenza A virus [12]) | MIC95 (Escherichia coli) | MIC95 (Pseudomonas aeruginosa) | MIC95 (Klebsiella pneumoniae [13]) | MIC95 (Klebsiella pneumoniae [14]) | MIC (Candida albicans) | MIC (Candida tropicalis) | MIC (Pichia kudriavzevii) | MIC (Nakaseomyces glabratus) | further results
1 | O=C(NCc1ccccc1)c1cncc(Cl)n1 | 0.2 | 404 µM | > 100 µg/mL | > 100 µg/mL |  |  |  |  |  |  |  |  |  |  |  |  |  |  |  |  | MIC [4]: 50 µM (≈ 12.4 µg/mL)
2 | CCCCCCCCNc1cnc(C(=O)NCc2ccccc2)cn1 | 1.312 | > 100 µg/mL | > 100 µg/mL | > 100 µg/mL | 4.6 µM (≈ 1.57 µg/mL) | 28 µM | 100 µM | 100 µM | 20 µM | 62 µM | ≥ 20 µM | < 4.00 | > 500 µM | > 500 µM | > 500 µM | > 500 µM | > 500 µM | > 500 µM | > 500 µM | > 500 µM | MIC (Trichosporon asahii): > 500 µM; MIC (Aspergillus fumigatus): > 500 µM; MIC (Lichtheimia corymbifera): > 500 µM; MIC [15]: > 500 µM; pEC50 (Influenza A virus [16]): 5.96; pEC50 [17]: 5.05; inhibition [18]: inactive; Ratio [19]: <=20
3 | NNC(=O)c1ccncc1 [ISONIAZID] | -0.743 | 11 µM |  |  | 2.8 µM (≈ 0.384 µg/mL) |  |  |  |  |  |  |  |  |  |  |  |  |  |  |  | inhibition [18]: Active; Activity [20]: inactive
4 | O=C(NCc1ccccc1)c1cnc(Cl)cn1 | 0.186 | 100 µg/mL | > 100 µg/mL | > 100 µg/mL |  |  |  |  |  |  |  |  |  |  |  |  |  |  |  |  | MIC [4]: 100 µM (≈ 24.8 µg/mL)
5 | CCCCCCCCc1ccc(Oc2ccccc2)c(O)c1 |  |  |  |  |  |  |  |  |  |  |  |  |  |  |  |  |  |  |  |  | pIC50 [21]: 8.30
6 | CCCCCCCNc1cncc(C(=O)NCc2ccccc2)n1 | 1.207 | 38 µM | > 100 µg/mL | > 100 µg/mL | 10 µM (≈ 3.26 µg/mL) | > 100 µM | > 100 µM | > 100 µM | > 100 µM | 2.4 µM | 4 µM | < 4.00 | > 500 µM | > 500 µM | > 500 µM | > 500 µM | > 500 µM | > 500 µM | > 500 µM | > 500 µM | Activity (Staphylococcus aureus [22]): inactive; MIC (Trichosporon asahii): > 500 µM; MIC (Aspergillus fumigatus): > 500 µM; MIC (Lichtheimia corymbifera): > 500 µM; MIC [15]: > 500 µM; pEC50 (Influenza A virus [16]): < 4.00; inhibition [18]: inactive; Ratio [19]: <=20
7 | CCCCCCNc1cnc(C(=O)NCc2ccccc2)cn1 | 0.859 | > 100 µg/mL | > 100 µg/mL | > 100 µg/mL | 10 µM (≈ 3.12 µg/mL) | > 100 µM | > 100 µM | > 100 µM | ≥ 100 µM | > 100 µM | > 100 µM | 4.21 | > 500 µM | > 500 µM | > 500 µM | > 500 µM | > 500 µM | > 500 µM | > 500 µM | > 500 µM | MIC (Trichosporon asahii): > 500 µM; MIC (Aspergillus fumigatus): > 500 µM; MIC (Lichtheimia corymbifera): > 500 µM; MIC [15]: > 500 µM; pEC50 (Influenza A virus [16]): 4.28; Ratio [19]: <=20
8 | CCCCCCCCNc1cncc(C(=O)NCc2ccccc2)n1 | 1.431 | 18 µM | > 100 µg/mL | > 100 µg/mL | 9.2 µM (≈ 3.13 µg/mL) | > 100 µM | > 100 µM | > 100 µM | > 100 µM | 1.3 µM | 4 µM | < 4.00 | > 500 µM | > 500 µM | > 500 µM | > 500 µM | > 500 µM | > 500 µM | > 500 µM | > 500 µM | Activity (Staphylococcus aureus [22]): inactive; MIC95 (Staphylococcus aureus [23]): 3.9 µM (≈ 1.33 µg/mL); MIC (Trichosporon asahii): > 500 µM; MIC (Aspergillus fumigatus): > 500 µM; MIC (Lichtheimia corymbifera): > 500 µM; MIC [15]: > 500 µM; pEC50 (Influenza A virus [16]): < 4.00; Ratio [19]: <=20
